We go through seven molecules from patent EP1247803A2, “Indolinone compounds suitable for modulation of protein kinases” (Sugen, Inc., priority 1996, dated 1998).

Molecules are shown by their SMILES.

The experiment deals with T1, EGFR (Homo sapiens, UniProt P00533).
T1 construct: Add 7 ug A431 cell lysate per well (EGFR source); endogenous in cells; host or cells: A431
T1 sequence (P00533 25-1210): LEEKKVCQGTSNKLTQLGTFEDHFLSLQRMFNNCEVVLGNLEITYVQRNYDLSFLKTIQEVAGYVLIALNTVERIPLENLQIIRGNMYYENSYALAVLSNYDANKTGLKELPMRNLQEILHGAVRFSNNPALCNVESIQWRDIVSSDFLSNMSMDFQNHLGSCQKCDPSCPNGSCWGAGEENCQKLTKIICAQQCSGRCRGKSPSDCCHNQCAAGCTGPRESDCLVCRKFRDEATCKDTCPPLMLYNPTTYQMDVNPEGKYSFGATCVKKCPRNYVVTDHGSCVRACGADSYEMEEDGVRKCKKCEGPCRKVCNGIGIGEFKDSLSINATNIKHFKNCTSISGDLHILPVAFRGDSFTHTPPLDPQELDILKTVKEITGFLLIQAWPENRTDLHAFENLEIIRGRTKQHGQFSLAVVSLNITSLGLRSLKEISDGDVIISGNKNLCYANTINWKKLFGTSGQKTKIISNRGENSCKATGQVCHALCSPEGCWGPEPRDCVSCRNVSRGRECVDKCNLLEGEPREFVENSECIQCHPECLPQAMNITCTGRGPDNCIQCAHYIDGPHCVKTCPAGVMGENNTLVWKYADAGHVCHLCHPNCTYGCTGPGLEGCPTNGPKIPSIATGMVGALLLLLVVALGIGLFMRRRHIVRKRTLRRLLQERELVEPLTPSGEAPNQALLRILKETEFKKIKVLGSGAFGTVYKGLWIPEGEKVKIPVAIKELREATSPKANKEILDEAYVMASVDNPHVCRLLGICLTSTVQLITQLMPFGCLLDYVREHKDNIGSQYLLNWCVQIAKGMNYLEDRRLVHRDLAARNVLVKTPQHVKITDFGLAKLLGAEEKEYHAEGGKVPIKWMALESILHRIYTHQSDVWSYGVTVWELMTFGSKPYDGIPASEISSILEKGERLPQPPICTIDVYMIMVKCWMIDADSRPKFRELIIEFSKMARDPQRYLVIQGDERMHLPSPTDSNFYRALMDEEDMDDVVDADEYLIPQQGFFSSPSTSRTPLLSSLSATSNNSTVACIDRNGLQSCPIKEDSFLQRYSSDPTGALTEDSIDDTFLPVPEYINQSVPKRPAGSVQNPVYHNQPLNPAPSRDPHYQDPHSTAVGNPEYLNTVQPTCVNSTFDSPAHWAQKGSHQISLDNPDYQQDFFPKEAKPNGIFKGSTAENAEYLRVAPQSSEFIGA
Kind of experiment: EGFR ELISA assay (in vitro kinase activity, EGFR captured from A431 cell lysate). The class given is biochemical. More on the design: concentration or dose not given beside the values. The method, boiled down: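 EGFR from A431 lysate was captured on plates coated with anti-EGFR antibody. Compounds were added 30 min before a 5 min phosphorylation with 3 µM ATP/5 mM MnCl2, which was stopped with 20 mM EDTA. Phosphotyrosine was detected with rabbit anti-phosphotyrosine, then a peroxidase-conjugated secondary and ABTS/H2O2, read at 410 nm.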
(In general: In an ELISA, binding on a coated surface is turned into a signal by an enzyme label.)
`CCc1c(C)[nH]c(C=C2C(=O)Nc3ccc(S(=O)(=O)NC)cc32)c1C` [10719/D05]: the “Biochem EGFR %Inhibition” value is on record as 18.5%. For `CCOc1cc(C=C2C(=O)Nc3c(Br)cc(Br)cc32)ccc1O` [10720/A09] the value was 8.6%. Turning to `Cc1cc(O)cc(O)c1C=C1C(=O)Nc2ccc(I)cc21` [10720/B08], the “Biochem EGFR %Inhibition” value is -12.6%. On to `COc1ccc(C=C2C(=O)Nc3ccc(S(=O)(=O)Nc4ccc(C(F)(F)F)cc4)cc32)c(OC)c1` [10719/E04], for which the “Biochem EGFR %Inhibition” value is -7.4%. For `O=C1Nc2ccc(I)cc2C1=Cc1ccc[nH]1` [10717/B09] the value was 78.3%; for `COc1ccc(O)c(C=C2C(=O)Nc3ccc(Br)c(C)c32)c1` [10720/C10], 2.0%; for `COc1cc(O)ccc1C=C1C(=O)Nc2c(Br)cc(Br)cc21` [10720/A03], -5.3%.
